Laboratory results taken from US12616760B2, “Synthetic cyclic peptide mimetics” (priority 2020, dated 2026).
Like-named read-outs stand apart in the source and are kept apart here. Square brackets hold non-standard residues; d marks the D form. Peptide text beside a SMILES is read from it. Nle = CCCC[C@H](N)C(=O)O; azaGly = NNC(=O)O

What was measured:
Aβ40 = target: T1, Aβ40 (Homo sapiens, UniProt P05067); experiment: Thioflavin T (ThT) fluorescence assay of Aβ40 aggregation; assay type: biochemical; conditions: for Inhibition of amyloidogenic activity(%) / Inhibition of amyloidogenic activity: ThT; for Inhibition of amyloidogenic activity: Table 4
T1 construct: The extent of Aβ40 aggregation in the presence of increasing concentrations of azacyclopeptides
T1 sequence (P05067 672-711 limits assumed): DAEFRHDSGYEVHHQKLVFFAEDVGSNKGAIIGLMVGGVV
Procedure: Amyloid generation can be identified and quantified using the thioflavin T (ThT) fluorescence dye assay. […] Agents that bind and inhibit aggregation of Aβ diminish ThT fluorescence relative to untreated Aβ. The extent of Aβ40 aggregation in the presence of increasing concentrations of azacyclopeptides and azasulfurylcyclopeptide 55 was evaluated by the ThT assay. Fluorescence of Aβ40 that was aged for 48 h was used as control, defined as 0% anti-amyloidogenic activity, and compared with fluorescence in the presence of cyclic peptide mimics at increasing concentrations to measure anti-amyloidogenic activity.

[1] = test system: rat pheochromocytoma PC12 cells; assay type: cell-based; set-up: Cells survival (%): concentration or dose not given beside the values; conditions: for Cells survival (%): Table 5, PC12, MTT
Procedure: Considering that self-assembly and aggregation of Aβ are key components of AD pathogenesis, the ability of azaGly-cyclopeptides 2-7 to reduce Aβ-induced toxicity was next tested in rat pheochromocytoma PC12 cells. Cells were incubated for 24 h with Aβ40 (10 μM) that had been aged for 48 h in the presence and absence of increasing concentrations of the azacyclopeptides. Cell viability was assessed using the 3-(4,5-dimethylthiazol-2-yl)-2,5-diphenyltetrazolium bromide (MTT) survival assay (Table 2). In this assay, viable cells reduce permeable MTT by active metabolism to produce a purple-colored formazan product with absorbance maximum near 570 nm. Dead cells lose the ability to convert MTT into formazan. The quantity of formazan is therefore directly proportional to the number of viable cells and measurable over time by recording changes in absorbance using a spectrophotometer. Neurons are susceptible to the lethal effects of misfolded proteins which are likely to aggregate at increased concentration. The pheochromocytoma (PC12) cell line is commonly used in in vitro studies to examine neuronal variation and neurotoxicity as a model of neurodegenerative disease.

[2] = Aβ:peptide 1:1, 10 μM soluble Aβ40
[3] = Aβ:peptide 1:5, 10 μM soluble Aβ40
[4] = Aβ:peptide 1:10, 10 μM soluble Aβ40
[5] = Aβ:peptide 1:0.1, 10 μM soluble Aβ40

Row | Compound | Inhibition of amyloidogenic activity(%) (Aβ40; [2]) | Inhibition of amyloidogenic activity(%) (Aβ40; [3]) | Inhibition of amyloidogenic activity(%) (Aβ40; [4]) | effect on lag phase and ThT fluorescence (Aβ40; incubation with Aβ) | also measured
1 | CCCC[C@@H]1NC(=O)[C@@H](CC(C)C)NC(=O)[C@H](CCCCN)NC(=O)[C@@H](CO)NC(=O)[C@H](Cc2c[nH]cn2)NC(=O)[C@@H](Cc2c[nH]c3ccccc23)NC1=O [Compound 1, Cyclo-L-lysine-D-leucine-L-norleucine-D-tryptophan-L-histidine-D-serine, reference compound] (cyclo(K[dL][Nle][dW]H[dS])) | 44.6% | 84.7% | 92.8% |  | Inhibition of amyloidogenic activity (Aβ40; Aβ:peptide 1:1): 44.6%; Inhibition of amyloidogenic activity (Aβ40; Aβ:peptide 1:5): 84.7%; Inhibition of amyloidogenic activity (Aβ40; Aβ:peptide 1:10): 92.8%; Inhibition of amyloidogenic activity(%) (Aβ40; Table 5, Aβ:peptide 1:1): 44.6%; Inhibition of amyloidogenic activity(%) (Aβ40; Table 5, Aβ:peptide 1:5): 84.7%; Inhibition of amyloidogenic activity(%) (Aβ40; Table 5, Aβ:peptide 1:10): 92.8%
2 | CCCC[C@@H]1NC(=O)[C@@H](CC(C)C)NC(=O)NNC(=O)[C@@H](CO)NC(=O)[C@H](Cc2c[nH]cn2)NC(=O)[C@@H](Cc2c[nH]c3ccccc23)NC1=O [Compound 2, c(D-Leu-L-Nle-D-Trp-L-His-D-Ser-Gly*)] (cyclo([azaGly][dL][Nle][dW]H[dS])) | 76.7% |  |  |  | Inhibition of amyloidogenic activity(%) (Aβ40; [5]): 63.9%; effect on lag phase and ThT fluorescence (Aβ40; above stoichiometric concentrations): promoted significantly fibrilization of Aβ shortening the lag-phase and increasing ThT fluorescence; effect on lag phase and ThT fluorescence (Aβ40; at and below stoichiometric concentrations): prolonged dramatically the lag-phase and reduced ThT fluorescence; cell survival ([1]; 24 h): 87%
3 | CCCC[C@@H]1NC(=O)[C@@H](CC(C)C)NC(=O)[C@H](CCCCN)NC(=O)[C@@H](CO)NC(=O)NNC(=O)[C@@H](Cc2c[nH]c3ccccc23)NC1=O [Compound 4, c(D-Leu-L-Nle-D-Trp-Gly*-D-Ser-L-Lys)] (cyclo(K[dL][Nle][dW][azaGly][dS])) | 50.2% | 75% | 68.8% |  | 
4 | CCCC[C@@H]1NC(=O)[C@@H](CC(C)C)NC(=O)[C@H](CCCCN)NC(=O)[C@@H](CO)NC(=O)[C@H](Cc2c[nH]cn2)NC(=O)NNC1=O [Compound 5, c(D-Leu-L-Nle-Gly*-L-His-D-Ser-L-Lys)] (cyclo(K[dL][Nle][azaGly]H[dS])) | 89.8% | 91.1% | 90.8% | dramatically prolonged the lag phase and reduced the ThT fluorescence | Inhibition of amyloidogenic activity(%) (Aβ40; [5]): 55.3%
5 | CC(C)C[C@H]1NC(=O)[C@H](CCCCN)NC(=O)[C@@H](CO)NC(=O)[C@H](Cc2c[nH]cn2)NC(=O)[C@@H](Cc2c[nH]c3ccccc23)NC(=O)NNC1=O [Compound 6, c(D-Leu-Gly*-D-Trp-L-His-D-Ser-L-Lys)] (cyclo(K[dL][azaGly][dW]H[dS])) |  | 80.1% | 81.8% | dramatically prolonged the lag phase and reduced the ThT fluorescence | 
6 | CCCC[C@@H]1NC(=O)NNC(=O)[C@H](CCCCN)NC(=O)[C@@H](CO)NC(=O)[C@H](Cc2c[nH]cn2)NC(=O)[C@@H](Cc2c[nH]c3ccccc23)NC1=O [Compound 7, c(Gly*-L-Nle-D-Trp-L-His-D-Ser-L-Lys)] (cyclo(K[azaGly][Nle][dW]H[dS])) |  | 78.8% | 80.5% | dramatically prolonged the lag phase and reduced the ThT fluorescence | 
7 | c(D-Leu-L-Nle-D-Trp-L-His-Gly^-L-Lys) [Compound 55] |  |  |  |  | Cells survival (%) ([1]; Aβ:peptide 1:1): 76.9%; Cells survival (%) ([1]; Aβ:peptide 1:5): 106%
